Results on four compounds are retold here after PMC3929664, “A Panel of Diverse Assays to Interrogate the Interaction between Glucokinase and Glucokinase Regulatory Protein, Two Vital Proteins in Human Disease” (PLoS ONE, 2014).

In this experiment the target is T1, GCK enzymatic reaction inhibited by GKRP (recombinant human GCK and GKRP) (Homo sapiens, UniProt P35557+Q14397).
T1 construct: made in house
T1 sequence (P35557 1-465): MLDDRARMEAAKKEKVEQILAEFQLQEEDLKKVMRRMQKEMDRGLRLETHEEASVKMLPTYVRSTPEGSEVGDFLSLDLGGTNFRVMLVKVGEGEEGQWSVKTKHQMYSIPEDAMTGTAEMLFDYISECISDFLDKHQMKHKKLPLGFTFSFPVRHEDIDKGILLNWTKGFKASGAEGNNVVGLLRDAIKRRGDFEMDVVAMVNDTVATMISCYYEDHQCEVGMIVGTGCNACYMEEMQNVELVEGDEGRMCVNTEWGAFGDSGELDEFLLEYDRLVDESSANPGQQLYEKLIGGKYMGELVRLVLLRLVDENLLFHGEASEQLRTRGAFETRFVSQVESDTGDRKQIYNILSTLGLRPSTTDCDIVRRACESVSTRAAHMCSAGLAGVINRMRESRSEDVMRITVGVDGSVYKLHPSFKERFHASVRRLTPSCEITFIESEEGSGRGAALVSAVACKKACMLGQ
T1 sequence (Q14397 1-625): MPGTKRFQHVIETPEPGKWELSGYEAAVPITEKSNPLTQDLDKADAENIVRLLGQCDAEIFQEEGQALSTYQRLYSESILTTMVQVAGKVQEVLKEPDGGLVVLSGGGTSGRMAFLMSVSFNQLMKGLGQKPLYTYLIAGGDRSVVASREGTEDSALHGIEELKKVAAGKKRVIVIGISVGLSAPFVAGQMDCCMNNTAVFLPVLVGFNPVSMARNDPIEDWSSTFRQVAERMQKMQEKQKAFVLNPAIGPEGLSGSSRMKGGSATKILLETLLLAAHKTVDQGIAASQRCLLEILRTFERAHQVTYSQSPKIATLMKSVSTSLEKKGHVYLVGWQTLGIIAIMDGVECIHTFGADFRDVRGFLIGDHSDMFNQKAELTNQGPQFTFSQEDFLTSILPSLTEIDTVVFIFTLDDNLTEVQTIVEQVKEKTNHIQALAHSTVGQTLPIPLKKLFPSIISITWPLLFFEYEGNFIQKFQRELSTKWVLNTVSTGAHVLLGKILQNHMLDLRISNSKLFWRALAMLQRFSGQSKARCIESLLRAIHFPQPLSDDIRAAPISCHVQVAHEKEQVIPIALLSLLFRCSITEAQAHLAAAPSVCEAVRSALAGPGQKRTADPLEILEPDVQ
As to the kind of experiment: Bioluminescence assay (ADP-Glo) of the GCK enzyme reaction with GKRP. In kind it is biochemical. The settings on record: for LOPAC1280 screen outcome: 2 µM S6P; for response across formats (ADP only, GCK only, GCK-GKRP): 0.04 mM ADP, 4 nM GCK, 15 nM GCK with 15 nM GKRP. On the procedure:
A luminescence-based assay was developed for detection of ADP generation by recombinant GST-GCK (ADP-Glo™ Kinase Assay; Promega). Final reaction conditions included 25 mM HEPES, 25 mM KCl, 2 mM MgCl2, 1 mM DTT, 0.025% BSA, 0.01% Tween-20, 5 mM glucose, and concentrations of GST-GCK and FLAG-GKRP as indicated, and the reaction was initiated by addition of ATP to a final concentration of 0.4 mM. The reaction was terminated and luminescence generated using ADP-Glo™ Reagent and Kinase Detection Reagent (both Promega). In 1536-well plate format, luminescence enzyme assay buffer was dispensed (2 µl/well) using a BioRAPTR into white 1536-well medium binding plates and initiated by addition of 1 µl 1.2 mM ATP. After lidded incubation for the times indicated at room temperature, 2.5 µl of ADP-Glo™ Reagent was added to each well and plates were incubated with lidding for 60 minutes at room temperature. Following 5 µl addition per well of Kinase Detection Reagent, plates were incubated with lidding for a further 30 minutes at room temperature before luminescent detection using a ViewLux Microplate Imager (PerkinElmer). For the LOPAC^1280 library screen, column 1 was all components with DMSO (maximum signal) and column 3 was no GCK with DMSO (minimum signal). These two control columns were used for data normalization. The final HTS protocol is in Table S3, and the data have been deposited in PubChem (AID 743206).
S6P, F1P, and glucose were dissolved in water; GKAs were dissolved in DMSO.
The firefly luciferase enzyme utilizes luciferin and ATP to generate bioluminescence, and the coupling of ATP-dependent kinases to luciferase activity has enabled kinase activity to be measured quantitatively by luminescence measurements in high-throughput screens. The ADP-Glo™ assay, utilizing a two-step luciferase-based ADP-detection protocol, was employed to measure GCK activity ( Figure 1C ). Initial validation was carried out in 384-well plate format, and focused on GCK in the absence of GKRP to test suitability of the ADP-Glo™ format for the GCK enzyme. A titration of 14 GCK concentrations (1.5–100 nM; n = 8 for each concentration) was assessed at 5 mM glucose and 0.4 mM ATP at pH 7.4. The reaction was incubated for 45 minutes at room temperature. To estimate percent conversion of ATP to ADP, mixtures of ATP and ADP (total concentration 0.4 mM) were tested in duplicate, containing 0, 3, 5, 10, 30, 50, 70, and 100% ADP. The luminescence value at 10% ADP corresponded to the luminescence generated by 4 nM GCK (Figure S7). The ADP-Glo™ kit is linear throughout the range tested and provides an excellent range of detection.
The effects of GKRP inhibition were then assessed using the same reaction conditions at pH 7.1. ADP generation was measured using a matrix of five concentrations each of GCK and GKRP (0, 5, 10, 15, and 20 nM) in quadruplicate ( Figure 5A ). Reactions were incubated for 75 minutes. Luminescence of 15 nM GCK was reduced by approximately 60% by 15 nM GKRP, and the mean S/B at 15 nM GCK +15 nM GKRP was 3.7.
Accordingly, the bioluminescence reaction was capable of measuring GCK enzymatic activity and its inhibition by GKRP. We therefore pursued miniaturization of the assay to 1536-well plate format and tested the effects of S6P and F1P in three different assay formats: 0.04 mM ADP in the absence of GCK and GKRP, 4 nM GCK, and 15 nM GCK with 15 nM GKRP ( Figure 5B ). All assays provided robust luminescence signal in the absence of F1P or S6P (S/B >4.0).
(In general: In ADP-Glo the light output rises with the ADP produced.)

Where a name gives a salt, the structure may show the parent alone.

In the case of `O=C(O)C1=CC(=C(c2ccc(O)c(C(=O)O)c2)c2ccc(O)c(C(=O)O)c2)C=CC1=O` [ATA, aurintricarboxylic acid], where the note is “15 nM GCK, 15 nM GKRP”, the LOPAC1280 screen outcome is listed as “inhibitors of the GCK-GKRP interaction”.

In the case of `O=C(COP(=O)(O)O)[C@@H](O)[C@H](O)[C@H](O)CO` [F1P, fructose 1-phosphate], the “response across formats (ADP only, GCK only, GCK-GKRP)” value is “dependent on the presence of GKRP”. Where the note is “15 nM GCK, 15 nM GKRP, 75 minutes, mean ± SD, read-out: EC50 (activation of GCK enzymatic reaction, increase in luminescence)”, the EC50 – broadly, the midpoint of the concentration-response curve – was 1 ± 0.2 µM.

In the case of `O=P(O)(O)OC[C@@H](O)[C@@H](O)[C@H](O)[C@@H](O)CO` [S6P, sorbitol 6-phosphate], the “response across formats (ADP only, GCK only, GCK-GKRP)” value is recorded as “dependent on the presence of GKRP”. Besides, the IC50 (in general, the midpoint of a concentration-inhibition curve) (15 nM GCK, 15 nM GKRP, 75 minutes, mean ± SD, read-out: IC50 (decrease in luminescence)) amounted to 0.005 ± 0.0006 µM.

On to `Cc1ccc(C(=O)Nc2ccc(S(=O)(=O)O)c3cc(S(=O)(=O)O)cc(S(=O)(=O)O)c23)cc1NC(=O)c1cccc(NC(=O)Nc2cccc(C(=O)Nc3cc(C(=O)Nc4ccc(S(=O)(=O)O)c5cc(S(=O)(=O)O)cc(S(=O)(=O)O)c45)ccc3C)c2)c1` [suramin sodium salt], for which the LOPAC1280 screen outcome (15 nM GCK, 15 nM GKRP) is “inhibitors of the GCK-GKRP interaction”.
